Data: PubChem BioAssay (NCI)
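Here, GI50 denotes the concentration required for 50% inhibition of growth. Definition used: TGI = concentration required for complete inhibition of growth.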

Assays:
Assay in all cases: NCI-60 cell line screen, 384-well format
HCT-116 colon = test system: HCT-116 colon
HOP-62 NSCLC = test system: HOP-62 NSCLC
IGROV1 ovarian = test system: IGROV1 ovarian
NCI/ADR-RES ovarian = test system: NCI/ADR-RES ovarian
OVCAR-4 ovarian = test system: OVCAR-4 ovarian
OVCAR-5 ovarian = test system: OVCAR-5 ovarian
OVCAR-8 ovarian = test system: OVCAR-8 ovarian
RXF 393 renal = test system: RXF 393 renal
SF-539 CNS = test system: SF-539 CNS
SN12C renal = test system: SN12C renal
SW-620 colon = test system: SW-620 colon
U251 glioblastoma = test system: U251 glioblastoma
UACC-257 melanoma = test system: UACC-257 melanoma

CCc1c(C#N)c(SC(C(N)=O)c2ccccc2)nc(N2CCC(N)CC2)c1C#N (stereo unspecified)
GI50 (HCT-116 colon): 1.84 µM | TGI (HCT-116 colon): 14.5 µM | GI50 (HOP-62 NSCLC): 4.92 µM | TGI (HOP-62 NSCLC): 16.3 µM | GI50 (IGROV1 ovarian): 15 µM | TGI (IGROV1 ovarian): 28.3 µM | GI50 (NCI/ADR-RES ovarian): 66.6 µM | TGI (NCI/ADR-RES ovarian): > 100 µM | GI50 (OVCAR-4 ovarian): 13.7 µM | TGI (OVCAR-4 ovarian): 26.6 µM | GI50 (OVCAR-5 ovarian): 16.1 µM | TGI (OVCAR-5 ovarian): 29.6 µM | GI50 (OVCAR-8 ovarian): 15.6 µM | TGI (OVCAR-8 ovarian): 29.1 µM | GI50 (RXF 393 renal): 16.2 µM | TGI (RXF 393 renal): 29.8 µM | GI50 (SF-539 CNS): 6.59 µM | TGI (SF-539 CNS): 19.3 µM | GI50 (SN12C renal): 11.5 µM | TGI (SN12C renal): 23.7 µM | GI50 (SW-620 colon): 14.7 µM | TGI (SW-620 colon): 28.1 µM | GI50 (U251 glioblastoma): 12.5 µM | TGI (U251 glioblastoma): 25.1 µM | GI50 (UACC-257 melanoma): 2.22 µM | TGI (UACC-257 melanoma): 5.18 µM
